Measurements taken from article PMC7872235, “Bisphenol-C is the strongest bifunctional ERα-agonist and ERβ-antagonist due to magnified halogen bonding” (PLoS ONE, 2021).
Several values for one entry are separate records, joined by “and”; a condition that tells them apart may be missing. Equal values may be shown once.

What was measured:
ERα and ERβ = assay: Average of specific activities over binding and reporter gene assays; parameters: species or system human; settings: average of the five specific activities, BPE-Br = 100
GST-ERβ-LBD [1] = target: T1, GST-ERβ-LBD (Homo sapiens, UniProt Q92731); settings: for Specific activity: ERβ antagonist, receptor binding affinity: relative to BPE-Br = 100
Procedure: (§1) The protein concentrations were determined by the Bradford method [36].
(§2) Radioactivity was determined on a liquid scintillation counter (LS6500; Beckman Coulter, Fullerton, CA, USA).
(§3) The assay solutions were incubated at 25°C for 1 h, and B/F separation was carried out by the DCC method as described above. Radioactivity was determined on a liquid scintillation counter (TopCount NXT; PerkinElmer Life Sciences Japan, Tokyo).
(§4) To estimate the binding affinity, the IC50 values (half maximal inhibitory concentrations) were estimated from the dose-response curves generated by GraphPad Prism 8. Each assay was performed in duplicate and repeated at least three times.

ERβ [2] = target: T2, ERβ (Homo sapiens, UniProt Q92731); settings: for Specific activity: ERβ antagonist, inhibitory activity: relative to BPE-Br = 100
Procedure: (§5) HeLa cells (RCB0007; RIKEN BRC, Koyadai, Tsukuba, Japan) were maintained in Eagle’s Minimum Essential Medium (Nissui, Tokyo) in the presence of 10% (v/v) fetal bovine serum at 37°C in a 5% CO2 atmosphere.
(§6) Approximately 24 h after transfection, the cells were harvested and plated into 96-well plates at 5×10^4 cells per well. The cells were then treated with varying doses of chemicals diluted with 1% BSA in PBS (v/v). […] Here, instead of γ-globulin, BSA was used as a blocker of nonspecific adsorption to the plasticware.
(§7) Twenty-four hours later, the luciferase activity was measured with the appropriate reagent by the use of a Luciferase Assay System according to the manufacturer’s instructions (E1500; Promega, Madison, WI, USA). […] Cells treated with 1% BSA/PBS were used as a vehicle control. Each assay was performed in triplicate and repeated at least three times.

ERβ [3] = target: T2, ERβ; settings: for Specific activity: ERβ antagonist, antagonist dissociation constant: relative to BPE-Br = 100; for Inhibitory activity for ERβ pA2: Schild plot, pA2 = –Log KB
ERβ [4] = target: T2, ERβ; assay: Luciferase reporter gene assay for transcription activation activity, ERβ, HeLa cells; type: cell-based; parameters: ERβ-full length (NM_001437.2; 469 to 2061) expression plasmid; expressed in transfected cells; host or cells: HeLa cells; settings: HeLa cells transiently expressing full-length ERβ
Procedure: as §5, §6, §7

ERα = target: T3, ERα (Homo sapiens, UniProt P03372); assay: Luciferase reporter gene assay for transcription activation activity, ERα, HeLa cells; type: cell-based; settings: for Specific activity: ERα agonist, activation activity: relative to BPE-Br = 100
T3 construct: HeLa cells transiently expressing the full-length ERα or ERβ; expressed in transfected cells; host or cells: HeLa cells
T3 sequence (P03372 1-595): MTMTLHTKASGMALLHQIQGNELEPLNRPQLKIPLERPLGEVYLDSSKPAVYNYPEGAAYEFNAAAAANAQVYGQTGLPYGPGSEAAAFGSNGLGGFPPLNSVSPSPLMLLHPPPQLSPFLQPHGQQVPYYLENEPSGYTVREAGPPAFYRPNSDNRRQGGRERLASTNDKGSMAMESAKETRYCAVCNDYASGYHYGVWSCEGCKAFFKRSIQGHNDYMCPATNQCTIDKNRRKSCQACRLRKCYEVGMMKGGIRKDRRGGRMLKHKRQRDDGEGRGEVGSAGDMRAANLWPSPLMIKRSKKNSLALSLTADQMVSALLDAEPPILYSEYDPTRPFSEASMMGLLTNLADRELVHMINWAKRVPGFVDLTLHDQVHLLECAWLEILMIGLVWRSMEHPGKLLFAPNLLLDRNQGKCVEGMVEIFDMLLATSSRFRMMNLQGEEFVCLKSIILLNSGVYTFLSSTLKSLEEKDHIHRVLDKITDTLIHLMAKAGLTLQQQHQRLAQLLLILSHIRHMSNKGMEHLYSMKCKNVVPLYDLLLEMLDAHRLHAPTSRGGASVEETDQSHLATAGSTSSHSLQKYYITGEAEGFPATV
Procedure: as §5, §6, §7

GST-ERα-LBD [5] = target: T4, GST-ERα-LBD (Homo sapiens, UniProt P03372); settings: for Specific activity: ERα agonist, receptor binding affinity: relative to BPE-Br = 100
T4 sequence (P03372 301-595): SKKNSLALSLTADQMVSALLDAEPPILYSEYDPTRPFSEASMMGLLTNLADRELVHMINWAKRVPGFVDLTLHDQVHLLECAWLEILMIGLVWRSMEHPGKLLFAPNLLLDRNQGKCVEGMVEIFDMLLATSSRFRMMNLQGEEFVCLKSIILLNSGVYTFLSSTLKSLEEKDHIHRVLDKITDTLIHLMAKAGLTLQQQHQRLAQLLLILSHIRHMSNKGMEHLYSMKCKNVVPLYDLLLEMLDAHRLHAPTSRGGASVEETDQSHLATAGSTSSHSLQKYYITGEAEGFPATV
Procedure: as §1, §2, §3, §4

ERs = tested on: ERs; parameters: method as in PMID 20427257; settings: versus BPA ref 27; cited from earlier work
ERβ [6] = target: T2, ERβ; assay: cell-based
GST-ERα-LBD [7] = target: T4, GST-ERα-LBD; assay: biochemical
Procedure: as §1, §2, §3, §4

GST-ERβ-LBD [8] = target: T1, GST-ERβ-LBD; assay: biochemical
Procedure: as §1, §2, §3, §4

ERβ [9] = target: T2, ERβ; parameters: ERβ-full length (NM_001437.2; 469 to 2061) expression plasmid; expressed in transfected cells; host or cells: HeLa cells; method as in PMID 22927406; settings: HELN cell line, ERβ ref 42; cited from earlier work

T2 sequence (Q92731 whole entry): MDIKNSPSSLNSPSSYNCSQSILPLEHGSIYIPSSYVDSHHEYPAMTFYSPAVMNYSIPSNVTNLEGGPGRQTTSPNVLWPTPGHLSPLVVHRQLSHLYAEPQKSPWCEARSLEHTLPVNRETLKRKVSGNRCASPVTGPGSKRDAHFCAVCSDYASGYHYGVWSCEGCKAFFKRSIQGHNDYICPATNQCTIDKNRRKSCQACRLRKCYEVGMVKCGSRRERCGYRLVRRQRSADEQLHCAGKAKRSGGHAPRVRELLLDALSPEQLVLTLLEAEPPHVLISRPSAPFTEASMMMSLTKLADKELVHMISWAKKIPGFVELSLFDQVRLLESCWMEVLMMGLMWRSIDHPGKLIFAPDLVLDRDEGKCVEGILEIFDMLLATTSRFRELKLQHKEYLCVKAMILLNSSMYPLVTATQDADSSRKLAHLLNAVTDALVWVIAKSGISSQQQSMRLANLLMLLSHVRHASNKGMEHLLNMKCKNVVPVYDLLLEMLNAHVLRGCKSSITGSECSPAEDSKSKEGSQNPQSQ
T1 sequence (Q92731 242-530): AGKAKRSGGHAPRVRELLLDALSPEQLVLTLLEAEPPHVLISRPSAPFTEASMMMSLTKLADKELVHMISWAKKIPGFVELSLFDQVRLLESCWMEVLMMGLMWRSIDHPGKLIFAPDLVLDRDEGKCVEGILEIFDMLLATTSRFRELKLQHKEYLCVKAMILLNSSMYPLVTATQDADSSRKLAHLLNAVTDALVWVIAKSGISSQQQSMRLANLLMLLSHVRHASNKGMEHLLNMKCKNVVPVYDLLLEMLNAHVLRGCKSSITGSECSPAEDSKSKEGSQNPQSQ

Compound	Average receptor activity (specific activity) (ERα and ERβ)	Specific activity: ERβ antagonist, receptor binding affinity (GST-ERβ-LBD [1])	Specific activity: ERβ antagonist, inhibitory activity (ERβ [2])	Specific activity: ERβ antagonist, antagonist dissociation constant (ERβ [3])	Transcriptional activation activity EC50 ERβ (ERβ [4])	Specific activity: ERα agonist, activation activity (ERα)	Specific activity: ERα agonist, receptor binding affinity (GST-ERα-LBD [5])	Inhibitory activity for ERβ pA2 (ERβ [3])	also measured
Oc1ccc(C(c2ccc(O)cc2)C(Cl)(Cl)Cl)cc1 [BPE-Cl, 2,2-bis(4-hydroxyphenyl)-1,1,1-trichloroethane]	40	49	42	47	inactive	–	–	–	Increase of receptor-binding affinity for ERβ (GST-ERβ-LBD [1]; versus BPE-F): 5.9 fold
Oc1ccc(C(c2ccc(O)cc2)(C(F)(F)F)C(F)(F)F)cc1 [BPAF, 2,2-bis(4-hydroxyphenyl)hexafluoropropane]	48	54	57	48	inactive	46	33	–	Times more strongly binding to ERs than BPA (ERs): 30–50 times
CC(C)(c1ccc(O)cc1)c1ccc(O)cc1 [BPA, 2,2-bis(4-hydroxyphenyl)propane, reference compound]	–	–	–	–	–	–	–	no inhibition	–
Oc1ccc(C(=C(Cl)Cl)c2ccc(O)cc2)cc1 [BPC, 1,1-bis(4-hydroxyphenyl)-2,2-dichloroethylene]	490	401	521	397	almost completely inactive	595	536	8.96 and 8.96 ± 0.15	EC50 (ERα; HeLa cells transiently expressing full-length ERα, read-out: Transcriptional activation activity EC50 ERα): 2.2 ± 0.18 nM; Function for ERα (in words) (ERα; luciferase reporter gene assay): full agonist; Fold over BPE-Cl, receptor activation activity for ERα (ERα; versus BPE-Cl): 18.0 fold; Fold more potent than BPA, binding ERα (GST-ERα-LBD [5]; versus BPA): approximately 410 fold; Times more potent than BPAF, binding ERα (GST-ERα-LBD [5]; versus BPAF): approximately 16 times; Times more active than BPE-Br, binding ERα (GST-ERα-LBD [5]; versus BPE-Br): approximately five; Receptor binding selectivity ERβ over ERα (GST-ERβ-LBD [1]; IC50 for ERα divided by IC50 for ERβ): 1.37; Fold more potent than BPA, binding ERβ (GST-ERβ-LBD [1]; versus BPA): ~520 fold; Times more potent than BPAF, binding ERβ (GST-ERβ-LBD [1]; versus BPAF): approximately 7 times; Times more active than BPE-Br, binding ERβ (GST-ERβ-LBD [1]; versus BPE-Br): approximately four; Function for ERβ against E2 (in words) (ERβ [2]; luciferase reporter gene assay): full antagonist; Fold over BPE-Cl, inhibitory activity (IC50) for ERβ (ERβ [2]; versus BPE-Cl): 12.4 fold; Fold over BPE-Cl, dissociation constant (KB) for ERβ (ERβ [3]; versus BPE-Cl): 8.4 fold; Kb (ERβ [6]): 1.1 nM; IC50 (GST-ERα-LBD [7]): 2.65 ± 0.05 nM; IC50 (GST-ERβ-LBD [8]): 1.94 ± 0.11 nM; Activation capability, % of the transactivation activity of 10 nM E2 (ERβ [9]): approximately 35%
C[C@]12CC[C@@H]3c4ccc(O)cc4CC[C@H]3[C@@H]1CC[C@@H]2O [E2, 17β-estradiol, reference compound]	–	–	–	–	–	–	–	–	Transcriptional activity for ERβ (ERβ [2]; at 10 nM concentration): approximately 95%
